Tests used:
endometrium = assay: average endometrial thickness in treated monkeys; format: in vivo, cynomolgus monkeys (Macaca fascicularis); conditions: Ovx/E2 + PRM 10 mg/kg daily oral, 19 days
From the text: (§1) Adult female cynomolgus monkeys (Macaca fascicularis) were obtained from Covance Research Products. Following one complete menstrual cycle and in the follicular phase of the subsequent menstrual cycle, the animals were ovariectomized by a mid-ventral laparotomy. Ovariectomized (OVX) animals were subject to estrogen treatment after the fourth week following ovariectomy.
Animals and treatment were the same as Example 1 with the following exceptions. To study the effect of PRMs on the endometrium and gene expression, groups of three ovariectomized (OVX) monkeys were given an estrogen implant (E2), plus daily oral doses of the following PRMs for 19 days: mifepristone at 10 mg/kg/d; 17N11-DE (17β-N-substituted-11β-dimethylaminophenyl-estra-4,9-dien-3-one) 1.0, 3.0, or 10 mg/kg/d; 17N11-PE (17β-N-substituted-11β-piperidinylphenyl-estra-4,9-dien-3-one) at 1.0, 3.0, or 10 mg/kg/d. A placebo (0.5% methylcellulose) was administered as a control. 17N11-DE and 17N11-PE are two PRMs that have been described in PCT Publication No. WO 99/62928. Tissue samples were taken from endometria and myometria for histological analysis.

DMBT1 [1] = assay: quantitative RT-PCR of DMBT1 in uterus of ovariectomized rats; format: in vivo, Wistar rats; conditions: OVX rats, ethinyl estradiol + medroxyprogesterone acetate + 10 mg/kg mifepristone (FIG. 3B)
Method: Six weeks old ovariectomized Wistar rats (Charles River, Wilmington, Mass.) were dosed for either one day or six weeks with vehicle or test compounds. All treatments were delivered orally, once daily, in 0.5% methylcellulose or sesame oil. After treatment, the uteri were removed, total RNA was purified from the tissues using TRIzol reagent (Invitrogen, Carlsbad, Calif.) as directed by the manufacturer.
Quantitative reverse transcription-polymerase chain reactions (RT-PCR) of DMBT1 from rat RNA samples were carried out using a One-Step RT-PCR Master Mix Kit (Applied Biosystems, Foster City, Calif.) and an ABI Prism 7000 Sequence Detection System (Applied Biosystems), as described by the manufacturer. Commercially available primers and FAM-labeled MGB probes for human and rat DMBT1 (catalog numbers Hs00244827_ml and Rn00575705_ml, respectively) were obtained from Applied Biosystems (Foster City, Calif.). Messenger RNA levels were normalized against 18S ribosomal RNA levels determined using primers and a VIC- and TAMRA-labeled probe from the same vendor.

DMBT1 [2] = assay: DNA microarray analysis of DMBT1 expression in endometrium of ovariectomized monkeys; format: in vivo, cynomolgus monkeys (Macaca fascicularis); conditions: for effect on estrogen-induced increase in DMBT1 mRNA levels: OVX monkeys with estrogen implant plus mifepristone 10 mg/kg/d, microarray analysis and PCR
From the text: as §1
Following this period, the OVX monkeys were euthanized and tissue biopsies were taken from endometria of the monkeys treated with estrogen and the placebo. (Details of the endometrial features in OVX monkeys and OVX+estrogen-treated monkeys is described in Example 4.) The biopsies were placed in sterile containers, snap frozen immediately in liquid nitrogen, and stored at −80° C. until processed. Total RNA was prepared from each endometrial tissue biopsy, as described below.
Total RNA was prepared from endometrial tissue biopsies (approximately 50 mg each) using RNAzol™ (Tel-Test, Friendswood, Tex.), as follows. Two milliliters of RNAzol™ were used per 100 mg of tissue. Tissues were homogenized for 2 to 3 minutes using a Tissue Tearor homogenizer (Model No. 985-370; BioSpec Products, Bartlesville, Okla.), then transferred to a glass mortar bowl. The tissues were ground with at least 10 strokes of the pestle until a clear suspension was obtained. The homogenates were transferred to a polypropylene conical flask, to which 0.1 mL of chloroform per 1 mL of homogenate was added. The mixtures were then shaken vigorously for 1 minute. The suspensions were then transferred to a 2 mL microcentrifuge tube and centrifuged for 15. minutes at 12000 g and at 4° C. in a fixed angle rotor using a Biofuge 17R centrifuge (Baxter, Deerfield, Ill.). The aqueous phase was carefully transferred to a new microcentrifuge tube. An equal volume of isopropanol was added to the aqueous phase, mixed gently, and incubated at 4° C. for 15 minutes. RNA was pelleted by centrifuging the mixture for 15 minutes at 12000 g and at 4° C. as described above. The supernatant was removed and the pellet washed with 75% (v/v) ethanol (Pharmco Products, Brookfield, Conn.), followed by centrifugation at 7500 g for 8 minutes at 4° C. The supernatant was removed, and then the RNA pellet was air-dried briefly and resuspended in RNase-free water (Promega, Madison, Wis.). The samples were then treated with Amplification Grade RNase-free DNase I to remove any residual DNA (Invitrogen, Carlsbad, Calif.). Specifically, twenty micrograms of RNA were treated in a reaction volume of 0.1 mL, containing 1× DNase I reaction buffer and 10 units of DNase I. The reaction continued at room temperature for 15 minutes. […]

luminal epithelium = luminal epithelium thickening in rat uterus sections; format: in vivo, Wistar rats; conditions: OVX rats dosed six weeks, compared to sham and ovariectomized control; estrogen = ethinyl estradiol
Method: Mature, six week-old ovariectomized or sham-operated Wistar rats (Charles River) were dosed with ethinyl estradiol, tamoxifen or raloxifene for six weeks. Uteri were removed, sectioned for immunohistochemical analysis for DMBT1 expression using a polyclonal goat antibody against the human protein.
Tissues were trimmed and processed for paraffin embedding according to conventional methods. Five-micron sections were cut, mounted onto SuperFrost Plus+(Fisher Scientific, Pittsburgh, Pa.) microscopic slides and dried overnight. The protocols for routine single immunohistochemistry (IHC) have been described previously (D'Andrea et al., 2001, Biotechnic Histochem. 76:97-106). Briefly, tissue sections on microscopic slides were dewaxed and re-hydrated. Slides were microwaved for 5 min in Target buffer (Dako, Carpenturia, Calif.), cooled, placed in phosphate-buffered saline (PBS, pH 7.4) and treated with 3% (v/v) H2O2 for 10 min at room temperature. All incubations (30 min each) and washes were performed at room temperature. Normal rabbit blocking serum (Vector Labs, Burlingame, Calif.) was placed on all slides for 10 min. After a brief rinse in PBS, sections were treated with goat polyclonal DMBT1 primary antibody (1:25, Hypromatrix, Worcester, Mass.). Slides were then washed in PBS and treated with rabbit anti-goat biotinylated secondary antibodies (Vector Labs). After washing in PBS, the avidin-biotin-horseradish peroxidase complex reagent (HRP, Vector Labs) was added. All slides were washed and treated with 3,3′-diaminobenzidine (DAB, Biomeda, Foster City, Calif.) two times for 5 min each, rinsed in distilled water, and counterstained with hematoxylin.

uterus = assay: uterine weight in 22-day-old female rats; format: in vivo, Sprague Dawley rats; conditions: oral; for uterine weight on co-treatment with estrone: 70 μg/kg/day estrone + 1 mg/kg/day compound, three days (FIG. 1); for uterine weight: compound alone, three days, estrone 70 μg/kg/day, others 1 mg/kg/day, vs control (FIG. 1)
Method: (§2) Ten groups of 22-day-old female Sprague Dawley rats (three animals per group) were used to evaluate the effects of estrone, tamoxifen, raloxifene, and ICI 182780 on DMBT1 expression in the uterus. The following groups of rats were treated for three days as follows:
(§3) All treatments were delivered orally in 0.5% Methocel. After treatment the animals were euthanized and the uteri were collected, weighed, frozen in liquid nitrogen, and stored at −20° C. RNA was purified from the frozen uteri using 1.0 mL of TRIzol Reagent (Invitrogen) and a PowerGen 25 tissue homogenizer (Fisher Scientific), according to the manufacturer's instructions.
In rats, uteri increase in size under the proliferative influence of estrogen, and this increase in size can be measured by weighing the tissues.
Administration of the treatments and collection of tissue samples were carried out according to the procedure described in Example 2. RNA was purified, blotted and hybridized to radioactively labeled rat ebnerin cDNA as in described in Example 2.

DMBT1 [3] = assay: Northern analysis of DMBT1 expression in rat uterus; format: in vivo, Sprague Dawley rats; conditions: 70 μg/kg/day estrone + 1 mg/kg/day compound, relative to estrone alone (FIG. 3A)
Method: as §2, §3
Northern analysis was performed to determine gene expression, including DMBT1 expression, in the uterus of control and treated rats. For gel electrophoresis, samples containing 2 μg of total RNA in a volume of 2 μL of water were added to 6 microliters of formaldehyde loading dye (Ambion) and incubated at 65° C. for 20 minutes. One microliter of a 0.1 mg/ml ethidium bromide solution was then added to each sample. […] The RNA was transferred to a Hybond-N membrane (Amersham) for […] by capillary transfer blotting, using 10×SSC (0.15 M Sodium citrate, pH 7.0, 1.5 M NaCl), after which the membranes were stained with ethidium bromide, destained with water, and photographed for lane loading comparison. The membranes were then air-dried and kept at room temperature until hybridization.
A glycerol stock of a bacterial clone carrying a plasmid (pINCY) containing the rat ebnerin (DMBT1) gene was obtained from Incyte Genomics (ID#: 0000101155000011). […] One colony was selected and used to inoculate 200 mL of Lennox L Broth (Sigma)+50 μg/mL ampicillin (Sigma). The liquid culture was grown overnight at 37° C. and the bacteria were collected by centrifugation. Purification of plasmid DNA was carried out using a QIAfilter plasmid maxi kit (QIAgen) according to the manufacturer's instructions.
Purified pINCY/DMBT1 was treated with the restriction enzymes EcoRI and NotI (Promega) for the preparation and isolation of a 1,174 bp DNA fragment containing the ebnerin probe (DMBT1). The products of the restriction enzyme reaction were separated by electrophoresis on a 1× TAE, 1% SeaKem Gold Agarose Reliant gel, and the band corresponding to the 1.174 kb DNA ebnerin clone was excised. The ebnerin DNA probe was purified from the gel slice using a QIAquick Gel Extraction Kit (QIAgen) according to the manufacturer's instructions. Bound DNA was eluted from the QIAgen column with 50 μL of elution buffer. The ebnerin DNA probe in the eluate was quantified by comparison to a DNA standard by gel electrophoresis. The ebnerin DNA probe was then diluted to a final concentration of 25 ng/μL.
Random-primed probe was made from 25 ng of the purified ebnerin DNA using a DECAprime II kit (Ambion) and Redivue α-^32P dATP (10 mCi/mL) (Amersham) according to the manufacturer's instructions, with the exception that the reaction was incubated for 30 minutes at 37° C. After adding EDTA to stop the reaction, the labeled probe was purified using a QIAquick Nucleotide Removal Kit (QIAgen) according to the manufacturer's instructions, with the final volume of eluted probe being 50 μL. Two microliters were counted in a scintillation counter to ensure optimal radionuclide incorporation (>2×10^6 cpm/μL).
The blot membrane as described in section A was wet in 2×SSC buffer (Sigma) for 15 minutes, then pre-hybridized in 10 mL RapidHyb (Amersham) at 65° C. for 20 minutes. The probe was boiled for 10 minutes, and 25 μL was added to 10 mL of RapidHyb, pre-warmed to 65° C. The blot membrane was added to the diluted probe solution and incubated, with rotation, in a hybridization oven for approximately 10 hours.
The membrane was removed from the probe-containing solution and rinsed twice with 2×SSPE +0.5% SDS+0.5% pyrophosphate at room temperature, and then washed once, with gentle agitation, for 30 minutes at room temperature in the same solution.

DMBT1 [4] = assay: immunohistochemical analysis of DMBT1 expression in rat uterus; format: in vivo, Wistar rats; conditions: OVX rats dosed six weeks; compared with estrogen (ethinyl estradiol)
Method: Tissues were trimmed and processed for paraffin embedding according to conventional methods. Five-micron sections were cut, mounted onto SuperFrost Plus+(Fisher Scientific, Pittsburgh, Pa.) microscopic slides and dried overnight. […] Briefly, tissue sections on microscopic slides were dewaxed and re-hydrated. Slides were microwaved for 5 min in Target buffer (Dako, Carpenturia, Calif.), cooled, placed in phosphate-buffered saline (PBS, pH 7.4) and treated with 3% (v/v) H2O2 for 10 min at room temperature. All incubations (30 min each) and washes were performed at room temperature. Normal rabbit blocking serum (Vector Labs, Burlingame, Calif.) was placed on all slides for 10 min. After a brief rinse in PBS, sections were treated with goat polyclonal DMBT1 primary antibody (1:25, Hypromatrix, Worcester, Mass.). Slides were then washed in PBS and treated with rabbit anti-goat biotinylated secondary antibodies (Vector Labs). […]
The rabbit polyclonal PCNA (proliferating cell nuclear antigen) antibody (1:4000; Sigma, St. Louis, Mo.) was detected using the HRP:SG detection system as described for routine single IHC, except the use of the SG chromogen (Vector Labs). […] DMBT1 was then detected using the Fast Red chromogen (Sigma, St. Louis, Mo.). […]

Row | Compound | Endometrial Thickness (mm) (endometrium) | Endometrial Thickness (mm) (endometrium; listed as Mif) | effect on progestin blockade of DMBT1 mRNA increase (DMBT1 [1]) | effect on estrogen-induced increase in DMBT1 mRNA levels (DMBT1 [2]) | effect on estrogen-induced increase in DMBT1 mRNA levels (DMBT1 [2]; listed as Mifepristone) | repression of estrogen-induced DMBT1 mRNA levels (DMBT1 [2]; Ovx/E2 + 10 mg/kg, microarray (FIG. 7)) | thickening of the luminal epithelium (luminal epithelium) | uterine weight on co-treatment with estrone (uterus) | uterine weight (uterus) | DMBT1 expression on coadministration with estrone (DMBT1 [3]) | cell levels of DMBT1 (immunostaining) in luminal epithelium (DMBT1 [4])
1 | CC#C[C@]1(O)CC[C@H]2[C@@H]3CCC4=CC(=O)CCC4=C3[C@@H](c3ccc(N(C)C)cc3)C[C@@]21C [mifepristone] | shrinks to about the thickness of that seen with leuprolide-treated tissue | 1.17 | blocked in turn | inhibited | prevented the increase in DMBT1 mRNA levels | about 20 fold | – | – | – | – | –
2 | O=C(c1ccc(OCCN2CCCCC2)cc1)c1c(-c2ccc(O)cc2)sc2cc(O)ccc12 [raloxifene] | – | – | – | – | – | – | not with raloxifene treatment | lower uterine weights, as compared to estrone | did not significantly affect uterine weight | additive increase | higher cell levels of DMBT1 than estrogen
3 | CC/C(=C(\c1ccccc1)c1ccc(OCCN(C)C)cc1)c1ccccc1 [tamoxifen] | – | – | – | – | – | – | even more pronounced | lower uterine weights, as compared to estrone | increases uterine weight only moderately | increased slightly | higher cell levels of DMBT1 than estrogen

Source: patent publication US20050208511A1, “DMBT1 as a clinical marker and uses thereof” (priority 2003, published 2005)
